Experimental data published in US9725446B2, “7-azaindole derivatives” (MERCK PATENT GmbH, priority 2011, dated 2017).
pIC50: −log10 of the molar value.

Tests used:
HCT 116 = assay: Tumour cell proliferation/vitality assay (Alamar Blue), HCT 116; assay type: cell-based; details: Homo sapiens; vitality assay, HCT 116 cells
Method: (§1) In the present experiment description, the inhibition of tumour cell proliferation/tumour cell vitality by active compounds is described.
(§2) The cells are sown in a suitable cell density in microtitre plates (96-well format) and the test substances are added in the form of a concentration series. After four further days of cultivation in serum-containing medium, the tumour cell proliferation/tumour cell vitality can be determined by means of an Alamar Blue test system.
(§3) The cells are cultivated in medium. At intervals of several days, the cells are detached from the culture dishes with the aid of trypsin solution and sown in suitable dilution in fresh medium. The cells are cultivated at 37° Celsius and 10% CO2.
(§4) A defined number of cells (for example 2000 cells) per culture/well in a volume of 180 μl of culture medium are sown in microtitre plates (96 well cell-culture plates) using a multichannel pipette. The cells are subsequently cultivated in a CO2 incubator (37° C. and 10% CO2).
(§5) The test substances are dissolved, for example, in DMSO and subsequently employed in corresponding concentration (if desired in a dilution series) in the cell culture medium. The dilution steps can be adapted depending on the efficiency of the active compounds and the desired spread of the concentrations. Cell culture medium is added to the test substances in corresponding concentrations. The addition of the test substances to the cells can take place on the same day as the sowing of the cells. To this end, in each case 20 μl of substance solution from the predilution plate are added to the cultures/wells. The cells are cultivated for a further 4 days at 37° Celsius and 10% CO2.
(§6) In each case, 20 μl of Alamar Blue reagent are added per well, and the microtitre plates are incubated, for example, for a further seven hours in a CO2 incubator (at 37° C. and 10% CO2). The plates are measured in a reader with a fluorescence filter at a wavelength of 540 nm. The plates can be shaken gently immediately before the measurement.
(§7) The absorbance value of the medium control (no cells and test substances used) is subtracted from all other absorbance values. The controls (cells without test substance) are set equal to 100 percent, and all other absorbance values are set in relation thereto (for example in % of control): […]

A2780 = assay: Tumour cell proliferation/vitality assay (Alamar Blue), A2780; assay type: cell-based; details: Homo sapiens; vitality assay, A2780 cells
Method: as §1, §2, §3, §4, §5, §6, §7

TGF-beta = assay: Inhibition of TGF-beta-mediated effects (elimination of TGF-beta-mediated growth inhibition, Mv1Lu cells, Crystal Violet); assay type: cell-based
Method: In-Vitro (Enzyme) Assay for Determination of the Efficacy of the Inhibitors of the Inhibition of TGF-Beta-Mediated Effects
As an example, the ability of the inhibitors to eliminate TGF-beta-mediated growth inhibition is tested.
Cells of the lung epithelial cell line Mv1Lu are sown in a defined cell density in a 96-well microtitre plate and cultivated overnight under standard conditions. Next day, the medium is replaced by medium which comprises 0.5% of FCS and 1 ng/ml of TGF-beta, and the test substances are added in defined concentrations, generally in the form of dilution series with 5-fold steps. The concentration of the solvent DMSO is constant at 0.5%. After a further two days, Crystal Violet staining of the cells is carried out. After extraction of the Crystal Violet from the fixed cells, the absorption is measured spectrophotometrically at 550 nm. It can be used as a quantitative measure of the adherent cells present and thus of the cell proliferation during the culture.

IKKε = IKKε (Homo sapiens (Human), UniProt Q14164); assay: IKKε kinase test (384-well flashplate); assay type: biochemical; details: read-out: IC50 [IKKepsilon]
Chain of IKKε (Q14164 whole entry, species assumed): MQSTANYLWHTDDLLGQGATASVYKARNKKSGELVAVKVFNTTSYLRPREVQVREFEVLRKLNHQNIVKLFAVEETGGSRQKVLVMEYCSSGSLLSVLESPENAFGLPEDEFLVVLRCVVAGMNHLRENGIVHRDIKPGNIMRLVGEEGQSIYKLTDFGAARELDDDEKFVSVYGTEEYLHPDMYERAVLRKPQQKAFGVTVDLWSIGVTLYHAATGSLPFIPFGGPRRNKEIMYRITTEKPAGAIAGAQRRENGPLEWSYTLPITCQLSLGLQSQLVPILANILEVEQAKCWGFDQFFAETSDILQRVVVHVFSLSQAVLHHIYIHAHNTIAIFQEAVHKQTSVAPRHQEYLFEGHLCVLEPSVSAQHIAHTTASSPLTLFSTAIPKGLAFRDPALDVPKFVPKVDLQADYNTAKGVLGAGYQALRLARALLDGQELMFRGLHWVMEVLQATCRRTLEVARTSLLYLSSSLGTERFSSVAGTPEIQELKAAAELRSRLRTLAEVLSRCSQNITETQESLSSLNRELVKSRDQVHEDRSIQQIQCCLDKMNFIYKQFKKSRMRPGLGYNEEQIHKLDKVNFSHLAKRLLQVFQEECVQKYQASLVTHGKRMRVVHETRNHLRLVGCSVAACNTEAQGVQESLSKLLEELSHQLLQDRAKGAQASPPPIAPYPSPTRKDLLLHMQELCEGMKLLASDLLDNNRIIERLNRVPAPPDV
Method: (§8) The kinase assay is performed as 384-well flashplate assay.
1 nM IKKε, 800 nM biotinylated IκBα(19-42) peptide (biotin-C6-C6-[…]) and 10 μM ATP (with 0.3 μCi of ^33P-ATP/well) are incubated in a total volume of 50 μl (10 mM MOPS, 10 mM magnesium acetate, 0.1 mM EGTA, 1 mM dithiothreitol, 0.02% of Brij35, 0.1% of BSA, 0.1% of BioStab, pH 7.5) with or without test substance at 30° C. for 120 min. The reaction is stopped using 25 μl of 200 mM EDTA solution, filtered off with suction after 30 min at room temperature, and the wells are washed 3 times with 100 μl of 0.9% NaCl solution. The non-specific proportion of the kinase reaction (blank) is determined using 3 μM EMD 1126352 (BX-795). Radioactivity is measured in the Topcount. IC50 values are calculated using RS1.

[1] = target: TANK binding kinase (TBK1) (Homo sapiens (Human), UniProt Q9UHD2); assay: TBK1 kinase test (384-well flashplate); assay type: biochemical
Chain of TANK binding kinase (TBK1) (Q9UHD2 whole entry, species assumed): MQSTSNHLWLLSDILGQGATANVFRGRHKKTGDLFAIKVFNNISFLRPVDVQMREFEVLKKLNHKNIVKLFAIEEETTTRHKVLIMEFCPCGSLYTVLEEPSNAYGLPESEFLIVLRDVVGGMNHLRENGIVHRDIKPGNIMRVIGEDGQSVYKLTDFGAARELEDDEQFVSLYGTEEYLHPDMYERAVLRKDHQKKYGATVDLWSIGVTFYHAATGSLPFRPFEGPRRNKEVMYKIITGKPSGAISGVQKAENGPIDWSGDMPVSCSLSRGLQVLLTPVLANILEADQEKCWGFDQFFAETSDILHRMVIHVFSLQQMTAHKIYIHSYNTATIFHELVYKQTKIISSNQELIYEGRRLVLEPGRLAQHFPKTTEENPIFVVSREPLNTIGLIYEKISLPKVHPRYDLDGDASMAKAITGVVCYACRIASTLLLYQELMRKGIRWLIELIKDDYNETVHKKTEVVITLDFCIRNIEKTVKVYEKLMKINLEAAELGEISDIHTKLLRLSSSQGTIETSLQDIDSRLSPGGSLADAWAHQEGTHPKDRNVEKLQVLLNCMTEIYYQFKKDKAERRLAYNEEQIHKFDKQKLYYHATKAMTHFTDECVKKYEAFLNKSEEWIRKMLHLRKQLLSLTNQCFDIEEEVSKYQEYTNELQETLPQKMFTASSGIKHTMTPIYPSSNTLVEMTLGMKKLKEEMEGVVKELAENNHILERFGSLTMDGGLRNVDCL
Method: as §8
0.6 nM TANK binding kinase (TBK1), 800 nM biotinylated MELK-derived peptide (biotin-Ah-Ah-[…]) and 10 μM ATP (with 0.25 μCi of ^33P-ATP/well) are incubated in a total volume of 50 μl (10 mM MOPS, 10 mM magnesium acetate, 0.1 mM EGTA, 1 mM DTT, 0.02% of Brij35, 0.1% of BSA, pH 7.5) with or without test substance at 30° C. for 120 min. The reaction is stopped using 25 μl of 200 mM EDTA solution, filtered off with suction after 30 min at room temperature, and the wells are washed 3 times with 100 μl of 0.9% NaCl solution. The non-specific proportion of the kinase reaction (blank) is determined using 100 nM staurosporine. Radioactivity is measured in the Topcount. IC50 values are calculated using RS1.

PDK1 = PDK1 (Homo sapiens (Human), UniProt O15530); assay: Test for the inhibition of PDK1 (flashplate, 33P-ATP); assay type: biochemical
Chain of PDK1 (O15530 51-556): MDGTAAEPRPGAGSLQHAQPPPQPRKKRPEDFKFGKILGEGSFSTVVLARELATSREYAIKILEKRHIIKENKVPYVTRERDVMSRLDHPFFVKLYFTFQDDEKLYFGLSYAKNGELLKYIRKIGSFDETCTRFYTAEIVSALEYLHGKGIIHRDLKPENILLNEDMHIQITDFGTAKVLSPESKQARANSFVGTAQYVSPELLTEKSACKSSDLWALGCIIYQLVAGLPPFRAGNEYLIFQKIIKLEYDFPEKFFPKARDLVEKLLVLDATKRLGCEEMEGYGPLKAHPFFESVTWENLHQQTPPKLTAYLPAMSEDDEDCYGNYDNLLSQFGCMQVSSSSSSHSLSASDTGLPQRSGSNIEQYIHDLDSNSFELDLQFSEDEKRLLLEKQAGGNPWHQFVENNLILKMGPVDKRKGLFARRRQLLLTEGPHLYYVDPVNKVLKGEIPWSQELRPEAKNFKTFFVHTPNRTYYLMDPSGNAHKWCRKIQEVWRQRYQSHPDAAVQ
Method: The experimental batches are carried out in a flashplate system with 384 wells/microtitration plate.
(400 nM), 4 μM ATP (with 0.2 μCi of ^33P-ATP/well) and the test substance in 50 μl of conventional experimental solution per well are incubated at 30° C. for 60 min. The test substances are employed in corresponding concentrations (if desired in a dilution series). The control is carried out without test substance. The reaction is stopped using standard methods and washed. The activity of the kinase is measured via the incorporated radioactivity in top count. In order to determine the non-specific kinase reaction (blank value), the experimental batches are carried out in the presence of 100 nM staurosporine.
The radioactivity (decompositions per minute) of the blank value (no use of test substance in the presence of staurosporine) is subtracted from all other radioactivity values. The controls (kinase activity without test substance) are set equal to 100 percent and all other radioactivity values (after subtracting the blank value) are expressed set in relation thereto (for example in % of the control).

Structure (SMILES) | pIC50 (HCT 116) | pIC50 (A2780) | pIC50 (TGF-beta) | pIC50 (IKKε) | pIC50 [1] | pIC50 (PDK1)
Nc1cc(-c2c[nH]c3ncccc23)c2ccccc2n1 [Compound A1, 4-(1H-pyrrolo[2,3-b]pyridin-3-yl)quinolin-2-ylamine] | 5.00 to 6.00 | 5.00 to 6.00 | – | – | – | –
c1cnc2[nH]cc(-c3cnc4ncccn34)c2c1 [Compound A3, 3-(1H-pyrrolo[2,3-b]pyridin-3-yl)imidazo[1,2-a]pyrimidine] | 5.00 to 6.00 | 5.00 to 6.00 | – | – | – | –
c1ccc2c(-c3c[nH]c4ncccc34)cnnc2c1 [Compound A4, 4-(1H-pyrrolo[2,3-b]pyridin-3-yl)cinnoline] | 5.00 to 6.00 | 5.00 to 6.00 | 5.00 to 6.00 | – | – | –
c1cc(-c2c[nH]c3ncccc23)c2ccncc2c1 [Compound A7, 5-(1H-pyrrolo[2,3-b]pyridin-3-yl)isoquinoline] | 5.00 to 6.00 | 5.00 to 6.00 | 6.00 to 9.30 | 5.00 to 6.00 | 5.00 to 6.00 | –
Nc1nccc2c(-c3c[nH]c4ncccc34)cccc12 [Compound A11, 5-(1H-pyrrolo[2,3-b]pyridin-3-yl)isoquinolin-1-ylamine] | 5.00 to 6.00 | 5.00 to 6.00 | 5.00 to 6.00 | – | – | –
Cn1cc(-c2cnc3[nH]cc(-c4cn(S(=O)(=O)c5ccccc5)c5cnccc45)c3c2)cn1 [Compound A14, 1-benzenesulfonyl-3-[5-(1-methyl-1H-pyrazol-4-yl)-1H-pyrrolo[2,3-b]pyridin-3-yl]-1H-pyrrolo[2,3-c]pyridine] | – | 6.00 to 8.00 | – | 6.00 to 9.30 | 6.00 to 9.30 | 5.00 to 6.00
Cc1[nH]c2ncccc2c1-c1cccc2cnccc12 [Compound A15, 5-(2-methyl-1H-pyrrolo[2,3-b]pyridin-3-yl)isoquinoline] | – | – | 6.00 to 9.30 | – | – | –
c1cnc2[nH]cc(-c3nccc4cnccc34)c2c1 [Compound A16, 1-(1H-pyrrolo[2,3-b]pyridin-3-yl)-2,6-naphthyridine] | – | – | 6.00 to 9.30 | – | – | –
Cn1cc(-c2cccc3cnccc23)c2cccnc21 [Compound A17, 5-(1-methyl-1H-pyrrolo[2,3-b]pyridin-3-yl)isoquinoline] | – | – | 6.00 to 9.30 | – | – | –
c1cnc2[nH]cc(-c3c[nH]c4cnccc34)c2c1 [Compound A18, 3-(1H-pyrrolo[2,3-b]pyridin-3-yl)-1H-pyrrolo[2,3-c]pyridine] | – | – | 5.00 to 6.00 | 5.00 to 6.00 | 6.00 to 9.30 | 5.00 to 6.00
Cn1cc(-c2c[nH]c3ncccc23)c2ccncc21 [Compound A19, 1-methyl-3-(1H-pyrrolo[2,3-b]pyridin-3-yl)-1H-pyrrolo[2,3-c]pyridine] | – | – | 5.00 to 6.00 | – | – | –
Cn1cc(-c2cnc3[nH]cc(-c4c[nH]c5cnccc45)c3c2)cn1 [Compound A20, 3-[5-(1-methyl-1H-pyrazol-4-yl)-1H-pyrrolo[2,3-b]pyridin-3-yl]-1H-pyrrolo[2,3-c]pyridine] | 6.00 to 8.00 | 6.00 to 8.00 | 6.00 to 9.30 | 6.00 to 9.30 | 6.00 to 9.30 | 6.00 to 9.30
c1ccc(-c2cc3nccc(-c4c[nH]c5ncccc45)c3o2)cc1 [Compound A21, 2-phenyl-7-(1H-pyrrolo[2,3-b]pyridin-3-yl)furo[3,2-b]pyridine] | 6.00 to 8.00 | 6.00 to 8.00 | – | – | – | –
Nc1ncc(-c2c[nH]c3ncccc23)c2ccncc12 [Compound A24, 4-(1H-pyrrolo[2,3-b]pyridin-3-yl)-2,7-naphthyridin-1-ylamine] | 5.00 to 6.00 | 5.00 to 6.00 | 6.00 to 9.30 | – | 5.00 to 6.00 | –
Cc1[nH]c2ncccc2c1-c1nccc2cnccc12 [Compound A28, 1-(2-methyl-1H-pyrrolo[2,3-b]pyridin-3-yl)-2,6-naphthyridine] | – | – | 6.00 to 9.30 | – | – | –
Cn1cc(-c2c[nH]c3cnccc23)c2cccnc21 [Compound A29, 3-(1-methyl-1H-pyrrolo[2,3-b]pyridin-3-yl)-1H-pyrrolo[2,3-c]-pyridine] | 5.00 to 6.00 | 5.00 to 6.00 | – | – | – | –
Cc1[nH]c2ncccc2c1-c1nccc2c(N)nccc12 [Compound A31, 5-(2-methyl-1H-pyrrolo[2,3-b]pyridin-3-yl)-2,6-naphthyridin-1-ylamine] | 5.00 to 6.00 | 5.00 to 6.00 | 6.00 to 9.30 | – | – | –
Nc1nccc2c(-c3c[nH]c4ncccc34)nccc12 [Compound A32, 5-(1H-pyrrolo[2,3-b]pyridin-3-yl)-2,6-naphthyridin-1-ylamine] | 5.00 to 6.00 | – | 6.00 to 9.30 | – | – | –
Cn1cc(-c2cnc3[nH]cc(-c4cn(C)c5cnccc45)c3c2)cn1 [Compound A33, 1-methyl-3-[5-(1-methyl-1H-pyrazol-4-yl)-1H-pyrrolo[2,3-b]-pyridin-3-yl]-1H-pyrrolo[2,3-c]pyridine] | – | – | 6.00 to 9.30 | 6.00 to 9.30 | 6.00 to 9.30 | 6.00 to 9.30
